Target: human F508del CFTR (Homo sapiens (Human), UniProt P13569, DEL508-508)
Assay: CFTR-YFP High Throughput Assay (YFP halide flux, FRT cells)
Format: cell-based
Settings: EMax normalized to the positive control; FRT cells expressing human F508del CFTR and YFP; read-out: % Efficacy
Experimental: Assays for Detecting and Measuring the Effect of Compounds on F508del-CFTR Channels CFTR-YFP Assay-CFTR Corrector Protocol:
This protocol is designed to selectively screen small molecule compounds for F508del CFTR corrector activities in the YFP (yellow fluorescent protein) flux assay. In this protocol, the cells are incubated with testing compounds for 24 hours, washed with PBS, stimulated with forskolin and a standard potentiator, and fluorescence in each plate well is measured kinetically read on a 384-well plate reader, such as the Hamamatsu FDSS-6000.
YFP fluorescence intensity values are acquired at high speed before and after iodide buffer is injected to the assay cells. Iodide enters the cells via active CFTR channels in the plasma membrane, and quenches the YFP fluorescence. The rate of fluorescence quenching is proportionate to the total CFTR activity in the cell membrane. F508del CFTR correctors increase the number of CFTR molecules in the testing cell plasma membrane, and thereby accelerate YFP quenching.
This method was initially developed for bench top plate readers (Galietta, J, Jayaraman, S and Verkman, A S. Cell-based assay for high-throughput quantitative screening of CFTR chloride transport agonists. Am. J. Physiol. Cell Physiol. (2001), 281: C173), and was adapted to the HTS format (Sui J, Cotard S, Andersen J, Zhu P, Staunton J, Lee M, Lin S. Optimization of a Yellow fluorescent protein-based iodide influx high-throughput screening assay for cystic fibrosis transmembrane conductance regulator (CFTR) modulators. Assay Drug Dev Technol. (2010), 8: 656-668).
Fisher Rat Thyroid (FRT) cells stably expressing both human F508del CFTR and a halide-sensitive yellow fluorescent protein (YFP-H148Q/I152L 25,22) (Galietta et al. Am. J. Physiol Cell Physiol 281(5), C1734, 2001) were cultured on plastic surface in Coon's modified Ham's F12 medium supplemented with FBS 10%, L-glutamine 2 mM, penicillin 100 U/ml, and streptomycin 100 μg/ml. G418 (0.75-1.0 mg/ml) and zeocin (3.2 ug/ml) were used for selection of FRT cells expressing F508del CFTR and YFP. For primary screening, FRT cells were plated into 384-well black wall, transparent bottom microtiter plates (Costar; Corning Inc.) at a cell density of 20,000-40,000 per well. Test compound was applied to the cells at varying concentrations ranging from 2 nM-40 μM in either a 2-fold or 3-fold dilution series. Cells were incubated in a cell culture incubator at 37° C. with 5% CO2 for 24-26 h. Assay plates were washed with DPBS media (Thermo, cat # SH30028.02) to remove unbound cells and compound. Stimulation media (25 μL) containing 20 μM Forskolin & 30 μM P3 [6-(Ethyl-phenyl-sulfonyl)-4-oxo-1,4-dihydro-quinoline-3-carboxylic acid 2-methoxy-benzylamide] in Hams F-12 coon's modified media was added to the plate wells and incubated at room temperature for 60-120 min. 25 μL of HEPES-PBS-I buffer (10 mM HEPES, 1 mM MgCl2, 3 mM KCl, 1 mM CaCl2, 150 mM NaI) was then added and fluorescence quench curves (Excitation 500 nm/Emission 540 nm; exposure 136 ms) were immediately recorded on an FDSS-6000 plate reader (Hamamatsu). Quench rates were derived from least squares fitting of the data as described by Sui et al (2010).
CFTR-YFP Assay-CFTR Potentiator Protocol:
This protocol is designed to selectively screen small molecule compounds for F508del CFTR potentiator activities in the YFP (yellow fluorescent protein) flux assay. Such compounds act acutely to stimulate CFTR already expressed on the membrane surface. In this protocol, the cells are incubated at 27° C. for 24 hours to homogeneously boost F508del CFTR expression in the cell membrane (low temperature correction), washed with PBS, treated with test compound, and CFTR activity is stimulated with forskolin for 1-2 hr. Measurement of ion flux is initiated by addition of iodide-containing buffer, and YFP quenching is kinetically recorded using a 384-well plate reader, such as the Hamamatsu FDSS-6000. […]

Chain of human F508del CFTR (P13569 other isoform, or with tags, fused parts or gaps del F508-F508): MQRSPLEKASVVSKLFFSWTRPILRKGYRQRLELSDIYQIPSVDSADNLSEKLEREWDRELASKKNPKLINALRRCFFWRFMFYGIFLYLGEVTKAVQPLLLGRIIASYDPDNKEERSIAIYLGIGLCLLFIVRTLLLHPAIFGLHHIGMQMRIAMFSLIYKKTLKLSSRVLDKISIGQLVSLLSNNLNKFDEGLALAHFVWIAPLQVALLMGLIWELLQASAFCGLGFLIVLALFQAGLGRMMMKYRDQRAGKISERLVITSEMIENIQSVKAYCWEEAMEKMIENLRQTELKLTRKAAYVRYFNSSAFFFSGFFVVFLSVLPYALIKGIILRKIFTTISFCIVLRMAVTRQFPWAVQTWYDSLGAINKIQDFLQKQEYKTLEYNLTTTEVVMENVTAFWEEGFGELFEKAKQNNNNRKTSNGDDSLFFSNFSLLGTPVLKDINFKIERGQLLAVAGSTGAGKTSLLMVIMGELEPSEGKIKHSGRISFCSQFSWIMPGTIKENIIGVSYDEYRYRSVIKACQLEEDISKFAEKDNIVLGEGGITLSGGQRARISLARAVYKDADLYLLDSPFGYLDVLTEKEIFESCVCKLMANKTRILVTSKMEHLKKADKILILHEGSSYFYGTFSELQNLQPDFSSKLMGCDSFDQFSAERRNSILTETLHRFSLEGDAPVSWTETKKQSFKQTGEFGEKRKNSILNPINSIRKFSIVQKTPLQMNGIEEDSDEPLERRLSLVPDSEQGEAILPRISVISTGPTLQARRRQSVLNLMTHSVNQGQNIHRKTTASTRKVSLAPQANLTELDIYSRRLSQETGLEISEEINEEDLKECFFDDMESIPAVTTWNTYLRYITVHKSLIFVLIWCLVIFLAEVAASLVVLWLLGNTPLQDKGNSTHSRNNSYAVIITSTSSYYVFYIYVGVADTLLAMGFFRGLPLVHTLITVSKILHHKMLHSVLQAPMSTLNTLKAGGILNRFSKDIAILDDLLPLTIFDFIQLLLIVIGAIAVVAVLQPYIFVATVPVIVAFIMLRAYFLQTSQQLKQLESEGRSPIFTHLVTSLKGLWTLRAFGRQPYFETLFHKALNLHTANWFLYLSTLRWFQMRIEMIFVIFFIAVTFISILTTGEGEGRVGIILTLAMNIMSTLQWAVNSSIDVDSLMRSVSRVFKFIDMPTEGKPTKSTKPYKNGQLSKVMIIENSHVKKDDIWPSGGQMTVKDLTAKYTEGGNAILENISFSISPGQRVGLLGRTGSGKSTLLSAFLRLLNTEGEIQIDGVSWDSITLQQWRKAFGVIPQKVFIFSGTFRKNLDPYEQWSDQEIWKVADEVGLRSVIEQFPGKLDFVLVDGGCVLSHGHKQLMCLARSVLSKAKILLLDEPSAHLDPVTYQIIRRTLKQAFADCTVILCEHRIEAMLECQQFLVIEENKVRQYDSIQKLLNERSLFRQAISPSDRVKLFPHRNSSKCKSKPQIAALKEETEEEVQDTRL

| SMILES | Emax [%] |
| --- | --- |
| Cc1nc2ccc(N(C)C(=O)Cn3nc(-c4cccc(Cl)c4)c4ccccc4c3=O)cc2o1 [Example 1, 2-(4-(3-chlorophenyl)-1-oxophthalazin-2(1H)-yl)-N-methyl-N-(2-methylbenzo[d]oxazol-6-yl)acetamide] | > 80 |
| Cc1nc2ccc(N(C)C(=O)Cn3nc(-c4cccc(F)c4)c4ccccc4c3=O)cc2o1 [Example 2, 2-(4-(3-fluorophenyl)-1-oxophthalazin-2(1H)-yl)-N-methyl-N-(2-methylbenzo[d]oxazol-6-yl)acetamide] | 30 to 80 |
| COc1ccc2c(-c3cccc(F)c3)nn(CC(=O)N(C)c3ccc4nc(C)oc4c3)c(=O)c2c1 [Example 3, 2-(4-(3-fluorophenyl)-7-methoxy-1-oxophthalazin-2(1H)-yl)-N-methyl-N-(2-methylbenzo[d]oxazol-6-yl)acetamide] | 30 to 80 |
| COc1ccc2c(-c3cccc(Cl)c3)nn(CC(=O)N(C)c3ccc4nc(C)oc4c3)c(=O)c2c1 [Example 4, 2-(4-(3-chlorophenyl)-7-methoxy-1-oxophthalazin-2(1H)-yl)-N-methyl-N-(2-methylbenzo[d]oxazol-6-yl)acetamide] | > 80 |
| COc1ccc2c(-c3cccc(Cl)c3)nn(CC(=O)N(c3ccc4nc(C)oc4c3)C3CC3)c(=O)c2c1 [Example 5, 2-(4-(3-chlorophenyl)-7-methoxy-1-oxophthalazin-2(1H)-yl)-N-cyclopropyl-N-(2-methylbenzo[d]oxazol-6-yl)acetamide] | > 80 |
| [2H]C([2H])([2H])N(C(=O)Cn1nc(-c2cccc(Cl)c2)c2ccc(OC)cc2c1=O)c1ccc2nc(C)oc2c1 [Example 6, 2-(4-(3-chlorophenyl)-7-methoxy-1-oxophthalazin-2(1H)-yl)-N-(methyl-d3)-N-(2-methylbenzo[d]oxazol-6-yl)acetamide] | > 80 |
| [2H]C([2H])(C)N(C(=O)Cn1nc(-c2cccc(Cl)c2)c2ccc(OC)cc2c1=O)c1ccc2nc(C)oc2c1 [Example 7, 2-(4-(3-chlorophenyl)-7-methoxy-1-oxophthalazin-2(1H)-yl)-N-(ethyl-1,1-d2)-N-(2-methylbenzo[d]oxazol-6-yl)acetamide] | > 80 |
| CCN(C(=O)Cn1nc(-c2cccc(F)c2)c2ccc(OC)cc2c1=O)c1ccc2nc(C)oc2c1 [Example 8, N-ethyl-2-(4-(3-fluorophenyl)-7-methoxy-1-oxophthalazin-2(1H)-yl)-N-(2-methylbenzo[d]oxazol-6-yl)acetamide] | > 80 |
| CCN(C(=O)Cn1nc(-c2cccc(Cl)c2)c2ccc(OC)cc2c1=O)c1ccc2nc(C)oc2c1 [Example 9, 2-(4-(3-chlorophenyl)-7-methoxy-1-oxophthalazin-2(1H)-yl)-N-ethyl-N-(2-methylbenzoyl[d]oxazol-6-yl)acetamide] | > 80 |
| COc1cc2c(=O)n(CC(=O)N(C)c3ccc4nc(C)oc4c3)nc(-c3cccc(F)c3)c2cc1Cl [Example 10, 2-(6-chloro-4-(3-fluorophenyl)-7-methoxy-1-oxophthalazin-2(1H)-yl)-N-methyl-N-(2-methylbenzo[d]oxazol-6-yl)acetamide] | 30 to 80 |
| COc1cc2c(=O)n(CC(=O)N(C)c3ccc4nc(C)oc4c3)nc(-c3cccc(Cl)c3)c2cc1Cl [Example 11, 2-(6-chloro-4-(3-chlorophenyl)-7-methoxy-1-oxophthalazin-2(1H)-yl)-N-methyl-(2-methylbenzo[d]oxazol-6-yl)acetamide] | > 80 |
| COc1ccc2c(-c3cccc(F)c3)nn(CC(=O)N(c3ccc4nc(C)oc4c3)C3CC3)c(=O)c2c1 [Example 12, N-cyclopropyl-2-(4-(3-fluorophenyl)-7-methoxy-1-oxophthalazin-2(1H)-yl)-N-(2-methylbenzo[d]oxazol-6-yl)acetamide] | > 80 |
| Cc1nc2ccc(N(C)C(=O)Cn3nc(-c4cccc(F)c4)c4ccc(O)cc4c3=O)cc2o1 [Example 13, 2-(4-(3-fluorophenyl)-7-hydroxy-1-oxophthalazin-2(1H)-yl)-N-methyl-N-(2-methylbenzo[d]oxazol-6-yl)acetamide] | > 80 |
| Cc1nc2ccc(N(C(=O)Cn3nc(-c4cccc(F)c4)c4ccc(O)cc4c3=O)C3CC3)cc2o1 [Example 14, N-cyclopropyl-2-(4-(3-fluorophenyl)-7-hydroxy-1-oxophthalazin-2(1H)-yl)-N-(2-methylbenzo[d]oxazol-6-yl)acetamide] | 30 to 80 |

Next, values leading:

| Emax [%] | SMILES |
| --- | --- |
| > 80 | Cc1nc2ccc(N(C(=O)Cn3nc(-c4cccc(Cl)c4)c4ccc(O)cc4c3=O)C3CC3)cc2o1 [Example 15, 2-(4-(3-chlorophenyl)-7-hydroxy-1-oxophthalazin-2(1H)-yl)-N-cyclopropyl-N-(2-methylbenzo[d]oxazol-6-yl)acetamide] |
| > 80 | Cc1nc2ccc(N(C)C(=O)Cn3nc(-c4cccc(Cl)c4)c4ccc(O)cc4c3=O)cc2o1 [Example 16, 2-(4-(3-chlorophenyl)-7-hydroxy-1-oxophthalazin-2(1H)-yl)-N-methyl-N-(2-methylbenzo[d]oxazol-6-yl)acetamide] |
| > 80 | CCOc1ccc2c(-c3cccc(F)c3)nn(CC(=O)N(C)c3ccc4nc(C)oc4c3)c(=O)c2c1 [Example 17, 2-(7-ethoxy-4-(3-fluorophenyl)-1-oxophthalazin-2(1H)-yl)-N-methyl-N-(2-methylbenzo[d]oxazol-6-yl)acetamide] |
| > 80 | CCOc1ccc2c(-c3cccc(Cl)c3)nn(CC(=O)N(c3ccc4nc(C)oc4c3)C3CC3)c(=O)c2c1 [Example 18, 2-(4-(3-chlorophenyl)-7-ethoxy-1-oxophthalazin-2(1H)-yl)-N-cyclopropyl-N-(2-methylbenzo[d]oxazol-6-yl)acetamide] |
| > 80 | CCOc1ccc2c(-c3cccc(Cl)c3)nn(CC(=O)N(C)c3ccc4nc(C)oc4c3)c(=O)c2c1 [Example 19, 2-(4-(3-chlorophenyl)-7-ethoxy-1-oxophthalazin-2(1H)-yl)-N-methyl-N-(2-methylbenzo[d]oxazol-6-yl)acetamide] |
| 30 to 80 | [2H]C([2H])([2H])N(C(=O)Cn1nc(-c2cccc(Cl)c2)c2ccc(OC(C)C)cc2c1=O)c1ccc2nc(C)oc2c1 [Example 20, 2-(4-(3-chlorophenyl)-7-isopropoxy-1-oxophthalazin-2(1H)-yl)-N-(methyl-d3)-N-(2-methylbenzo[d]oxazol-6-yl)acetamide] |
| > 80 | CCOc1ccc2c(-c3cccc(F)c3)nn(CC(=O)N(c3ccc4nc(C)oc4c3)C3CC3)c(=O)c2c1 [Example 21, N-cyclopropyl-2-(7-ethoxy-4-(3-fluorophenyl)-1-oxophthalazin-2(1H)-yl)-N-(2-methylbenzo[d]oxazol-6-yl)acetamide] |
| > 80 | [2H]C([2H])([2H])N(C(=O)Cn1nc(-c2cccc(F)c2)c2ccc(OCC)cc2c1=O)c1ccc2nc(C)oc2c1 [Example 22, 2-(7-ethoxy-4-(3-fluorophenyl)-1-oxophthalazin-2(1H)-yl)-N-(methyl-d3)-N-(2-methylbenzo[d]oxazol-6-yl)acetamide] |
| 30 to 80 | [2H]C([2H])([2H])N(C(=O)Cn1nc(-c2cccc(Cl)c2)c2ccc(OCC3CC3)cc2c1=O)c1ccc2nc(C)oc2c1 [Example 23, 2-(4-(3-chlorophenyl)-7-(cyclopropylmethoxy)-1-oxophthalazin-2(1H)-yl)-N-(methyl-d3)-N-(2-methylbenzo[d]oxazol-6-yl)acetamide] |
| > 80 | Cc1nc2ccc(N(C)C(=O)Cn3nc(-c4cccc(Cl)c4)c4ccc(OCC5CC5)cc4c3=O)cc2o1 [Example 24, 2-(4-(3-chlorophenyl)-7-(cyclopropylmethoxy)-1-oxophthalazin-2(1H)-yl)-N-methyl-N-(2-methylbenzo[d]oxazol-6-yl)acetamide] |

From patent publication US10280160B2, “Phthalazinone compounds and methods for the treatment of cystic fibrosis” (FLATLEY DISCOVERY LAB, LLC, priority 2013, dated 2019)
